Test results from the supplement of paper PMC10307832.

Legend:
Test in all cases: relative viability (nuclei count vs DMSO), 5 days (fraction); higher = more cells survive
Seliciclib + Crizotinib = compound: CC[C@H](CO)Nc1nc(NCc2ccccc2)c2ncn(C(C)C)c2n1 [Seliciclib] + C[C@@H](Oc1cc(-c2cnn(C3CCNCC3)c2)cnc1N)c1c(Cl)ccc(F)c1Cl [Crizotinib] (partner 1 µM)
Summary of the method: (§1)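 The day after seeding in 1536-well plates, lung cancer cell lines were treated by pin tool with a single drug, or with a fixed anchor-drug dose together with five library-drug doses (not always all listed) in √10 steps. After 5 days, a combined fix-and-stain solution (final 0.05% Triton X-100, 1% formaldehyde, 1 ug/ml Hoechst) was added. Nuclei counted on 4× images gave relative viability as treated counts over vehicle counts, reported as the median of duplicate plates.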

Seliciclib + OSI-027 = compound: CC[C@H](CO)Nc1nc(NCc2ccccc2)c2ncn(C(C)C)c2n1 [Seliciclib] + COc1cccc2cc(-c3nc([C@H]4CC[C@H](C(=O)O)CC4)n4ncnc(N)c34)[nH]c12 [OSI-027] (partner 0.5 µM)
Summary of the method: as §1

Seliciclib + Linsitinib = compound: CC[C@H](CO)Nc1nc(NCc2ccccc2)c2ncn(C(C)C)c2n1 [Seliciclib] + C[C@]1(O)C[C@@H](c2nc(-c3ccc4ccc(-c5ccccc5)nc4c3)c3c(N)nccn32)C1 [Linsitinib] (partner 1 µM)
Summary of the method: as §1

Seliciclib + Tozasertib = compound: CC[C@H](CO)Nc1nc(NCc2ccccc2)c2ncn(C(C)C)c2n1 [Seliciclib] + Cc1cc(Nc2cc(N3CCN(C)CC3)nc(Sc3ccc(NC(=O)C4CC4)cc3)n2)n[nH]1 [Tozasertib] (partner 0.1 µM)
Summary of the method: as §1

| Cell Line | relative viability (Seliciclib + Crizotinib; first compound 0.08 µM) | relative viability (Seliciclib + Crizotinib; first compound 0.253 µM) | relative viability (Seliciclib + Crizotinib; first compound 0.8 µM) | relative viability (Seliciclib + Crizotinib; first compound 2.53 µM) | relative viability (Seliciclib + Crizotinib; first compound 8 µM) | relative viability (Seliciclib + OSI-027; first compound 0.08 µM) | relative viability (Seliciclib + OSI-027; first compound 0.253 µM) | relative viability (Seliciclib + OSI-027; first compound 0.8 µM) | relative viability (Seliciclib + OSI-027; first compound 2.53 µM) | relative viability (Seliciclib + OSI-027; first compound 8 µM) | relative viability (Seliciclib + Linsitinib; first compound 0.08 µM) | relative viability (Seliciclib + Linsitinib; first compound 0.253 µM) | relative viability (Seliciclib + Linsitinib; first compound 0.8 µM) | relative viability (Seliciclib + Linsitinib; first compound 2.53 µM) | relative viability (Seliciclib + Linsitinib; first compound 8 µM) | relative viability (Seliciclib + Tozasertib; first compound 0.08 µM) | relative viability (Seliciclib + Tozasertib; first compound 0.253 µM) | relative viability (Seliciclib + Tozasertib; first compound 0.8 µM) | relative viability (Seliciclib + Tozasertib; first compound 2.53 µM) | relative viability (Seliciclib + Tozasertib; first compound 8 µM) |
| --- | --- | --- | --- | --- | --- | --- | --- | --- | --- | --- | --- | --- | --- | --- | --- | --- | --- | --- | --- | --- |
| NCI-H441 | 0.896 | 0.631 | 0.833 | 0.66 | 0.519 | 0.794 | 0.582 | 0.645 | 0.335 | 0.423 | 0.699 | 0.545 | 0.45 | 0.572 | 0.442 | 0.729 | 0.598 | 0.704 | 0.513 | 0.406 |
| NCI-H23 | 0.454 | 0.427 | 0.432 | 0.42 | 0.48 | 0.645 | 0.408 | 0.652 | 0.267 | 0.505 | 0.616 | 0.392 | 0.505 | 0.599 | 0.419 | 0.424 | 0.368 | 0.379 | 0.426 | 0.322 |
| HARA | 1.06 | 1.16 | 1.06 | 1.21 | 0.638 | 0.496 | 0.22 | 0.378 | 0.377 | 0.325 | 0.978 | 1.02 | 0.943 | 1.1 | 1.01 | 0.0937 | 0.0958 | 0.111 | 0.782 | 0.0956 |
| NCI-H1792 | 0.837 | 1.01 | 0.82 | 0.873 | 0.919 | 0.67 | 0.769 | 0.73 |  | 0.64 | 0.459 | 0.568 | 0.521 | 0.678 | 0.477 |  |  |  |  |  |
| NCI-H1703 | 0.643 | 0.609 | 0.563 | 0.635 | 0.556 |  |  |  |  |  | 0.675 | 0.869 | 0.767 | 0.989 | 0.712 |  |  |  |  |  |
| NCI-H358 | 0.54 | 0.709 | 0.546 | 0.544 | 0.246 | 0.79 | 0.501 | 0.652 | 0.58 | 0.448 | 0.613 | 0.634 | 0.617 | 0.609 | 0.445 | 0.11 | 0.0892 | 0.112 | 0.104 | 0.11 |
| CAL-12T | 0.624 |  | 0.846 | 0.687 | 0.461 | 0.746 | 0.504 | 0.763 | 0.321 | 0.357 | 0.87 | 0.977 | 0.744 | 0.742 | 0.673 | 0.297 | 0.313 | 0.294 | 0.247 | 0.234 |
| NCI-H727 | 0.813 | 0.882 | 0.777 | 0.829 | 0.823 | 0.792 | 0.687 | 0.465 | 0.338 | 0.636 | 0.306 | 0.245 | 0.222 | 0.226 | 0.251 | 0.616 | 0.89 | 0.528 | 0.557 | 0.487 |
| NCI-H2085 | 0.866 | 0.767 | 0.9 | 0.862 | 0.706 | 0.803 | 0.679 | 0.59 | 0.685 | 0.577 | 0.808 | 0.805 | 0.928 | 0.856 | 0.763 | 0.807 | 0.96 | 0.737 | 0.619 | 0.664 |
| NCI-H1395 |  |  |  |  |  | 0.728 | 0.576 | 0.606 | 0.612 | 0.587 | 0.961 | 0.739 | 1 | 1.06 | 1.28 | 0.738 | 0.718 | 0.719 | 0.718 | 0.69 |
| SW 900 |  |  |  |  |  | 0.59 | 0.396 | 0.62 | 0.45 | 0.397 |  |  |  |  |  | 0.79 | 0.689 | 0.488 | 0.401 | 0.307 |
| NCI-H460 | 0.787 | 0.821 | 0.837 | 1.36 | 0.722 | 0.706 | 0.601 | 0.672 | 0.563 | 0.561 | 0.797 | 0.795 | 0.75 | 1 | 0.637 | 0.525 | 0.561 | 0.502 | 0.465 | 0.363 |
| A549 | 0.674 | 0.82 | 0.799 | 0.809 | 0.591 |  |  |  |  |  | 0.599 | 0.473 | 0.434 | 0.651 | 0.446 |  |  |  |  |  |
| IA-LM | 0.596 | 1.17 | 0.92 | 0.906 | 0.622 |  |  |  |  |  | 0.644 | 0.793 | 0.602 | 0.709 | 0.611 |  |  |  |  |  |
| EKVX | 0.743 | 1.14 | 0.877 | 1.11 | 0.817 |  | 0.781 | 0.661 | 0.565 | 0.537 | 0.925 | 1.1 | 0.94 | 1.14 | 0.711 |  | 0.453 | 0.372 | 0.363 | 0.322 |
| ChaGo-K-1 | 1.14 | 1.01 | 1.12 | 1.12 | 0.488 | 0.663 | 0.367 | 0.587 | 0.356 | 0.451 |  |  |  |  |  | 0.241 | 0.225 | 0.213 | 0.222 | 0.238 |
